In brackets after ≈: the same amount, converted by molar mass. Like-named read-outs stand apart in the source and are kept apart here.
Assays:
[1] = Solubility in aqueous solvent; format: physicochemical; settings: 25° C.
Method: Experiment 4: Solubility in Aqueous Solvent The solubility in an aqueous solvent of the present compound was measured, and the results as shown in Table 4 were obtained. The pH value in Table 4 is a pH value of a solution of the present compound in distilled water.

Std:ddy mice = format: in vivo; settings: intravenous administration 300 mg/kg, 24 hours after administration
Source text: Experiment 3: Acute Toxicity Test in Mice
Twenty-four hours after the administration, the animals were observed if dead or alive.
*: Number of survived animals/number of tested animals

[2] = test system: pulmonary hemorrhage induced by human neutrophilic elastase; assay: Inhibitory activity on pulmonary hemorrhage induced by human neutrophilic elastase in hamsters; settings: hamster
Method: When human neutrophilic elastase is administered intratracheally to a hamster, the hemorrhage is induced in the lung. Hemoglobin is detected in the broncho-alveolar lavage fluid, which is obtained by washing the lung via bronchi at a fixed period after the elastase administration. In order to examine how much this hemorrhage can be inhibited by the present compound, this experiment was carried out by measuring the concentration of this hemoglobin.
Hamsters (male Syrian strain, 8-10 weeks old) were grouped into the following three groups (5 animals per group), and the following treatment was carried out on each group.
(A) Vehicle-Treated Control Group (Non-Treatment Group):
The result of the measurement was counted as A.
(B) Human Neutrophilic Elastase-Treated Group (Without the Present Compound):
Human neutrophilc elastase (25 units, manufactured by Elastin Products, Inc.) was dissolved in physiological saline solution (0.2 ml), and the solution thus obtained was administered to the hamsters at the bronchial tube to induce the pulmonary hemorrhage. One hour after the administration of elastase, the concentration of hemoglobin in the broncho-alveolar lavage fluid was measured in the same manner as in Group (A). The result of the measurement was counted as B.
(C) Human Neutrophilic Elastase-Treated Group (with the Present Compound):
A fixed amount of the present compound was administered to the hamsters in the form of a phosphate-buffered saline solution (pH 7.4) in the manner as described below. Then, human neutrophilic elastase was administered to the hamsters in the same manner as the above. One hour after the administration of elastase, the concentration of hemoglobin in the washing of the broncho-alveolar lavage was measured in the same manner as in Group (A). The result of the measurement was counted as C.
Administration Method of the Present Compound:
The administration of the present compound to the hamsters was carried out by two kinds of methods. One of them is a method of intravenous bolus-administration of the solution containing the present compound 5 minutes prior to the elastase administration. Another method is a method of intravenous infusion of the solution containing the present compound for a period of 70 minutes beginning at 10 minutes prior to the elastase administration.

[3] = target: T1, Human neutrophilic elastase (Homo sapiens, UniProt P08246); assay: Human neutrophilic elastase inhibitory activity in vitro (fluorogenic substrate); format: biochemical; settings: 37° C., pH 7.5
T1 construct: purchased Sigma
T1 sequence (P08246 30-267): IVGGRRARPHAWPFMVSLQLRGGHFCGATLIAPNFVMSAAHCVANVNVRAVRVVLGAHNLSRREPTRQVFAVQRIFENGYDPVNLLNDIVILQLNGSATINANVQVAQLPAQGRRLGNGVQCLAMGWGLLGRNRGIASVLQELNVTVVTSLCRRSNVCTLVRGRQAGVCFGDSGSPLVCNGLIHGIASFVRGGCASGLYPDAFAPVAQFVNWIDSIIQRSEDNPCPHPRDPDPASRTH
Method: Experiment 1: Human Neutrophilic Elastase Inhibitory Activity
In the present experiment, the inhibitory activity of the present invention against human neutrophilic elastase was studied in vitro.
The resulting solution (210 μl) was mixed with a 10^−8-10^−5 M solution of the present compound (40 μl), and the mixture was pre-incubated at 37° C. for 6 minutes. To this solution, 4 mM succinyl-alanyl-prolyl-alanine 4-methyl-coumaryl-7-amide (substrate solution, Peptide Institute Inc.) (50 μl) and distilled water (100 μl) were added, and the mixture was further reacted at 37° C. for 20 minutes. The concentration of the 7-amino-4-methylcoumarine thus obtained was measured fluorimetrically by monitoring at an excitation wave length of 380 nm and a fluorescent wave length of 460 nm.
The above “Bri j-35” means polyoxyethylene (23) lauryl ether, and the “HEPES” means N-(2-hydroxyethyl)piperazine-N′-(2-ethane-sulfonic acid).
In the following equation, A means the intensity of fluorescence when a present compound is added, and B means the intensity of fluorescence when a present compound is not added.
Inhibitory Rate (%)=(1−A/B)×100

[4] = distilled water, pH of the solution given beside each value, read-out: Solubility, Water
[5] = aqueous buffer, 0.1 M phosphate buffer pH 7.4, read-out: Solubility, 0.1 M Phosphate buffer (pH 7.4)
[6] = intravenous bolus administration 3 mg/kg, 5 minutes prior to elastase
[7] = intravenous bolus administration 10 mg/kg, 5 minutes prior to elastase
[8] = intravenous infusion 1 mg/kg/hr for 70 minutes
[9] = intravenous infusion 3 mg/kg/hr for 70 minutes
[10] = intravenous infusion 10 mg/kg/hr for 70 minutes

Compound | IC50 [3] [nM] | solubility [1, 4] [mg/mL] | solubility [1, 5] [mg/mL] | Livability (number of survived animals/number of tested animals) (Std:ddy mice) | Hemorrhage inhibitory rate [2, 6] [%] | Hemorrhage inhibitory rate [2, 7] [%] | Hemorrhage inhibitory rate [2, 8] [%] | Hemorrhage inhibitory rate [2, 9] [%] | Hemorrhage inhibitory rate [2, 10] [%] | Hemorrhage inhibitory rate ([2]; intravenous bolus administration 100 mg/kg (control dose row)) [%] | Hemorrhage inhibitory rate ([2]; intravenous infusion 10 mg/kg/hr (control dose row)) [%] | Hemorrhage inhibitory rate ([2]; intravenous infusion 100 mg/kg/hr (control dose row)) [%]
CC(C)[C@H](NC(=O)CN1CCN(CC(=O)O)C1=O)C(=O)N1CCC[C@H]1C(=O)N[C@H](C(=O)C(F)(F)F)C(C)C [I-b-1, 2-(3-carboxymethyl-2-oxo-1-imidazolidinyl)acetyl-L-valyl-N-[(1S)-3,3,3-trifluoro-1-isopropyl-2-oxopropyl]-L-prolinamide] | – | > 1000 | > 1000 | 6/6 | – | – | – | – | – | – | – | –
CC(C)(C)C(=O)Oc1ccc(S(=O)(=O)Nc2ccccc2C(=O)NCC(=O)O)cc1 [Control (a), reference compound] | – | 0.012 (≈ 0.0276 mM) | ~20 (≈ 46 mM) | – | – | – | – | – | – | 74 | 18 | 60
CC(C)[C@H](NC(=O)[C@@H]1CCCN1C(=O)[C@@H](NC(=O)Cn1ccc(=O)n(CC(=O)O)c1=O)C(C)C)C(=O)C(=O)NCc1ccccc1 [I-b-3, 2-(3-carboxymethyl-2,4-dioxo-1-pyrimidinyl)acetyl-L-valyl-N-[(1S)-3-benzylamino-1-isopropyl-2,3-dioxopropyl]-L-prolinamide] | – | 8.7 (≈ 13.6 mM) | > 100 | 6/6 | – | – | – | – | – | – | – | –
CC(C)[C@H](NC(=O)[C@@H]1CCCN1C(=O)[C@@H](NC(=O)Cn1ccc(=O)n(CC(=O)O)c1=O)C(C)C)C(=O)c1nc2ccccc2o1 [I-b-2, 2-(3-carboxymethyl-2,4-dioxo-1-pyrimidinyl)acetyl-L-valyl-N-[(1S)-2-(2-benzoxazolyl)-1-isopropyl-2-oxoethyl]-L-prolinamide] | – | 5 (≈ 8 mM) | > 100 | 6/6 | – | – | – | – | – | – | – | –

More lines, main results first:

IC50 [3] [nM] | Compound | solubility [1, 4] [mg/mL] | solubility [1, 5] [mg/mL] | Livability (number of survived animals/number of tested animals) (Std:ddy mice) | Hemorrhage inhibitory rate [2, 6] [%] | Hemorrhage inhibitory rate [2, 7] [%] | Hemorrhage inhibitory rate [2, 8] [%] | Hemorrhage inhibitory rate [2, 9] [%] | Hemorrhage inhibitory rate [2, 10] [%] | Hemorrhage inhibitory rate ([2]; intravenous bolus administration 100 mg/kg (control dose row)) [%] | Hemorrhage inhibitory rate ([2]; intravenous infusion 10 mg/kg/hr (control dose row)) [%] | Hemorrhage inhibitory rate ([2]; intravenous infusion 100 mg/kg/hr (control dose row)) [%]
82 | CC(C)[C@H](NC(=O)CN1C(=O)CN(CC(=O)O)C1=O)C(=O)N1CCC[C@H]1C(=O)N[C@H](C(=O)C(F)(F)F)C(C)C [I-b-7, 2-(3-carboxymethyl-2,5-dioxo-1-imidazolidinyl)acetyl-L-valyl-N-[(1S)-3,3,3-trifluoro-1-isopropyl-2-oxopropyl]-L-prolinamide] | – | – | – | 50 | 64 | 51 | 53 | 72 | – | – | –
45 | CC(C)[C@H](NC(=O)[C@@H]1CCCN1C(=O)[C@@H](NC(=O)CC(=O)N1CCN(CC(=O)O)C(=O)C1)C(C)C)C(=O)c1nc2ccccc2o1 [I-b-10] | – | – | – | 32 | 76 | 52 | 69 | 92 | – | – | –

From US6835714B1, “Heterocyclic compounds, intermediates thereof and elastase inhibitors” (Dainippon Pharmaceutical Co., Ltd., priority 1999, dated 2004)
